Source: patent US4012576A, “Antibiotic complex Bu 2183” (priority 1975, dated 1977)
Converted amounts (≈) assume the structure as drawn. Like-named read-outs stand apart in the source and are kept apart here.

Legend:
E. coli A20107 = assay: MIC, two-fold agar dilution on Nutrient Agar; type: cell-based; conditions: Escherichia coli, read-out: MIC
Method: (§1) The minimum inhibitory concentrations (MIC) of Bu-2183 A and B were determined against a wide variety of bacteria by the two-fold agar dilution method on Nutrient Agar plates. The inocula-replicating device of Steers et al. was used. Inoculum size was adjusted to be 10^4 dilution of overnight culture of the test organisms in Heart Infusion Broth (Difco). The results are shown in Table 6 along with those of kanamycin which was comparatively tested as a reference antibiotic.

E. coli A20895 = assay: MIC, two-fold agar dilution on Nutrient Agar; type: cell-based; conditions: Escherichia coli, read-out: MIC
Method: as §1

E. coli JR 35/C600 = assay: MIC, two-fold agar dilution on Nutrient Agar; type: cell-based
Method: as §1

E. coli JR 66/W677 = assay: MIC, two-fold agar dilution on Nutrient Agar; type: cell-based; conditions: Escherichia coli
Method: as §1

E. coli NIHJ [1] = assay: MIC, two-fold agar dilution on Nutrient Agar; type: cell-based; conditions: Escherichia coli, read-out: MIC
Method: as §1

E. coli NR 79/W677 = assay: MIC, two-fold agar dilution on Nutrient Agar; type: cell-based; conditions: Escherichia coli
Method: as §1

E. coli PO 1495 = assay: MIC, two-fold agar dilution on Nutrient Agar; type: cell-based
Method: as §1

E. coli R 5 = assay: MIC, two-fold agar dilution on Nutrient Agar; type: cell-based; conditions: Escherichia coli
Method: as §1

Ent. cloacae A21006 = assay: MIC, two-fold agar dilution on Nutrient Agar; type: cell-based
Method: as §1

[2] = system: K. pneumoniae Type 22-3038; assay: MIC, two-fold agar dilution on Nutrient Agar; type: cell-based
Method: as §1

Pr. vulgaris A9436 = assay: MIC, two-fold agar dilution on Nutrient Agar; type: cell-based; conditions: Proteus vulgaris, read-out: MIC
Method: as §1

Ps. aeruginosa A20601 = assay: MIC, two-fold agar dilution on Nutrient Agar; type: cell-based; conditions: Pseudomonas aeruginosa, read-out: MIC
Method: as §1

Ps. aeruginosa A20896 = assay: MIC, two-fold agar dilution on Nutrient Agar; type: cell-based; conditions: Pseudomonas aeruginosa, read-out: MIC
Method: as §1

Ps. aeruginosa No. 130 = assay: MIC, two-fold agar dilution on Nutrient Agar; type: cell-based
Method: as §1

Pseudomonas sp. A20621 = assay: MIC, two-fold agar dilution on Nutrient Agar; type: cell-based
Method: as §1

S. aureus A20239 = assay: MIC, two-fold agar dilution on Nutrient Agar; type: cell-based; conditions: Staphylococcus aureus, read-out: MIC
Method: as §1

S. aureus D137 = assay: MIC, two-fold agar dilution on Nutrient Agar; type: cell-based; conditions: Staphylococcus aureus, read-out: MIC
Method: as §1

Ser. marcescens A21247 = assay: MIC, two-fold agar dilution on Nutrient Agar; type: cell-based; conditions: Serratia marcescens, read-out: MIC
Method: as §1

E. coli NIHJ [3] = assay: Experimental infection of mice, median protective dose; type: in vivo; conditions: Escherichia coli, sc, 120 h
Method: (§2) Bu-2183 A and B were evaluated in vivo in experimental infections of mice. The pathogenic bacteria employed were S. aureus Smith, E. coli NIHJ and Ps. aeruginosa A9930. Mice were challenged with a 100 × LD50 dose of the pathogens in a 5% suspension of hog gastric mucin. A single subcutaneous treatment with the antibiotic was made immediately after the bacterial challenge (0 hour), and in a double dose schedule the antibiotic was administered at 0 and 3 hours after the challenge.

Ps. aeruginosa A9930 = assay: as above; type: in vivo; conditions: Pseudomonas aeruginosa, A9930, sc, 120 h
Method: as §2

S. aureus Smith = assay: as above; type: in vivo; conditions: Staphylococcus aureus, sc, 120 h
Method: as §2

in vivo = conditions: for no death at doses up to: 21600 min
Method: The acute toxicity of Bu-2183 A and B was determined in mice by the subcutaneous and intravenous routes.

[4] = system: Gram-positive and Gram-negative bacteria; assay: In vitro antibacterial activity (general); type: cell-based; conditions: for antibacterial spectrum: in vitro
Method: as §1

Solubility = type: physicochemical; conditions: base
Titration in water = type: physicochemical
[5] = system: S. aureus Smith, E. coli NIHJ and Ps. aeruginosa A9930; assay: Experimental infections of mice (all three pathogens); type: in vivo; conditions: subcutaneous
Method: as §2

eight test organisms = assay: Effect of media on activity (overall); type: cell-based; conditions: pH 8; Nutrient Agar, Heart Infusion Agar, Mueller-Hinton Agar
Method: The effect of media on the activity of Bu-2183 A and B was determined against eight test organisms. The media tested were Nutrient Agar, Heart Infusion Agar and Mueller-Hinton Agar. The media pH was adjusted at pH 8.

[6] = Escherichia coli, PO1495, Table 6, Ec-2, read-out: MIC
[7] = Enterobacter cloacae, A21006, Table 6, El-12, read-out: MIC
[8] = Klebsiella pneumoniae, TYPE223038, Table 6, Kp-8, read-out: MIC
[9] = Pseudomonas aeruginosa, NO.130, Table 6, Pa-16, read-out: MIC
[10] = Pseudomonas, SP.A20621, Table 6, Px-10, read-out: MIC
[11] = double dose at 0 and 3 hours after challenge, read-out: PD50 (double doses)
[12] = subcutaneous, single dose at 0 hour, 100 × LD50 challenge, read-out: PD50 (single dose)

CCC(=O)NC1C(CO)OC(OC(C(O)CN)C(N)C(O)CO)C(O)C1O (centres unmarked) [Bu-2183 A]
MIC (E. coli A20107; A20107, Table 6, Ec-49): 12.5 µg/mL (≈ 31.5 µM) | MIC (E. coli A20107; A20107, Table 7, Ec-49): 25 µg/mL (≈ 62.9 µM) | MIC (E. coli A20895; A20895, Table 6, Ec-62): 12.5 µg/mL (≈ 31.5 µM) | MIC (E. coli A20895; A20895, Table 7, Ec-62): 25 µg/mL (≈ 62.9 µM) | MIC (E. coli JR 35/C600; Escherichia coli, JR35/C600): 6.3 µg/mL (≈ 15.9 µM) | MIC (E. coli JR 35/C600; Table 7, Ec-10): 6.3 µg/mL (≈ 15.9 µM) | MIC (E. coli JR 66/W677; JR66/W677, Table 6, Ec-53): 6.3 µg/mL (≈ 15.9 µM) | MIC (E. coli JR 66/W677; JR66/W677, Table 7, Ec-53): 25 µg/mL (≈ 62.9 µM) | MIC (E. coli NIHJ [1]; Table 6, Ec-1): 12.5 µg/mL (≈ 31.5 µM) | MIC (E. coli NIHJ [1]; Table 7, Ec-1): 25 µg/mL (≈ 62.9 µM) | MIC (E. coli NR 79/W677; NR79/W677, Table 6, Ec-9): 25 µg/mL (≈ 62.9 µM) | MIC (E. coli NR 79/W677; NR79/W677, Table 7, Ec-9): 12.5 µg/mL (≈ 31.5 µM) | MIC (E. coli PO 1495; [6]): 25 µg/mL (≈ 62.9 µM) | MIC (E. coli PO 1495; Table 7, Ec-2): 25 µg/mL (≈ 62.9 µM) | MIC (E. coli R 5; R5, Table 6, Ec-55): 25 µg/mL (≈ 62.9 µM) | MIC (E. coli R 5; R5, Table 7, Ec-55): 6.3 µg/mL (≈ 15.9 µM) | MIC (Ent. cloacae A21006; [7]): 25 µg/mL (≈ 62.9 µM) | MIC (Ent. cloacae A21006; Table 7, El-12): 25 µg/mL (≈ 62.9 µM) | MIC [2, 8]: 25 µg/mL (≈ 62.9 µM) | MIC ([2]; Table 7, Kp-8 (printed Type 22-3028)): 25 µg/mL (≈ 62.9 µM) | MIC (Pr. vulgaris A9436; A9436, Table 6, Pv-1): 12.5 µg/mL (≈ 31.5 µM) | MIC (Pr. vulgaris A9436; A9436, Table 7, Pv-1): 25 µg/mL (≈ 62.9 µM) | MIC (Ps. aeruginosa A20601; A20601, Table 6, Pa-21): 25 µg/mL (≈ 62.9 µM) | MIC (Ps. aeruginosa A20601; A20601, Table 7, Pa-21): 50 µg/mL (≈ 126 µM) | MIC (Ps. aeruginosa A20896; A20896, Table 6, Pa-24): 25 µg/mL (≈ 62.9 µM) | MIC (Ps. aeruginosa A20896; A20896, Table 7, Pa-24): 50 µg/mL (≈ 126 µM) | MIC (Ps. aeruginosa No. 130; [9]): 25 µg/mL (≈ 62.9 µM) | MIC (Ps. aeruginosa No. 130; Table 7, Pa-16): 25 µg/mL (≈ 62.9 µM) | MIC (Pseudomonas sp. A20621; [10]): > 100 µg/mL | MIC (Pseudomonas sp. A20621; Table 7, Px-10): > 100 µg/mL | MIC (S. aureus A20239; A20239, Table 6, Sa-10): 25 µg/mL (≈ 62.9 µM) | MIC (S. aureus A20239; A20239, Table 7, Sa-10): 50 µg/mL (≈ 126 µM) | MIC (S. aureus D137; D137, Table 6, Sa-9): 100 µg/mL (≈ 252 µM) | MIC (S. aureus D137; D137, Table 7, Sa-9): 50 µg/mL (≈ 126 µM) | MIC (Ser. marcescens A21247; A21247, Table 6, Sm-16): 100 µg/mL (≈ 252 µM) | MIC (Ser. marcescens A21247; A21247, Table 7, Sm-16): > 100 µg/mL | ED50 (E. coli NIHJ [3]; [11]): 45 mg/kg | ED50 (E. coli NIHJ [3]; [12]): 92 mg/kg | ED50 (Ps. aeruginosa A9930; [11]): 80 mg/kg | ED50 (Ps. aeruginosa A9930; [12]): 230 mg/kg | ED50 (S. aureus Smith; [11]): 36 mg/kg | ED50 (S. aureus Smith; [12]): 42 mg/kg | LD50 (in vivo; mouse, in vivo, iv): 2500 mg/kg | LD50 at 360 h (in vivo; mouse, in vivo, sc): 1000 mg/kg | bio-activity [4]: bio-active | intrinsic activity in terms of MIC values [4]: moderate or rather weak | activity of component A relative to B ([4]; MIC, Table 6): 2-4 fold | antibacterial spectrum [4]: broad spectrum of antibacterial activity against Gram-positive and Gram-negative bacteria including many of the aminoglycoside-resistant organisms and Pseudomonas strains | solubility in methanol and ethanol (Solubility): slightly soluble | solubility in n-butanol, acetone and other common organic solvents (Solubility): practically insoluble | solubility in water (Solubility): soluble | pKa (Titration in water; read-out: pKa' (first value)): 6.9 | pKa (Titration in water; read-out: pKa' (second value)): 9.4 | in vivo activity [5]: afforded in vivo activity against all three of the infections tested | medium of greatest in vitro activity (eight test organisms): the greatest in vitro activity was demonstrated when Nutrient Agar was used

CC(=O)NC1C(CO)OC(OC(C(O)CN)C(N)C(O)CO)C(O)C1O (centres unmarked) [Bu-2183 B]
MIC (E. coli A20107; A20107, Table 6, Ec-49): 50 µg/mL (≈ 130 µM) | MIC (E. coli A20895; A20895, Table 6, Ec-62): 50 µg/mL (≈ 130 µM) | MIC (E. coli JR 35/C600; Escherichia coli, JR35/C600): 12.5 µg/mL (≈ 32.6 µM) | MIC (E. coli JR 66/W677; JR66/W677, Table 6, Ec-53): 25 µg/mL (≈ 65.2 µM) | MIC (E. coli NIHJ [1]; Table 6, Ec-1): 50 µg/mL (≈ 130 µM) | MIC (E. coli NR 79/W677; NR79/W677, Table 6, Ec-9): 100 µg/mL (≈ 261 µM) | MIC (E. coli PO 1495; [6]): 50 µg/mL (≈ 130 µM) | MIC (E. coli R 5; R5, Table 6, Ec-55): 100 µg/mL (≈ 261 µM) | MIC (Ent. cloacae A21006; [7]): 100 µg/mL (≈ 261 µM) | MIC [2, 8]: 100 µg/mL (≈ 261 µM) | MIC (Pr. vulgaris A9436; A9436, Table 6, Pv-1): 50 µg/mL (≈ 130 µM) | MIC (Ps. aeruginosa A20601; A20601, Table 6, Pa-21): 50 µg/mL (≈ 130 µM) | MIC (Ps. aeruginosa A20896; A20896, Table 6, Pa-24): 100 µg/mL (≈ 261 µM) | MIC (Ps. aeruginosa No. 130; [9]): 100 µg/mL (≈ 261 µM) | MIC (Pseudomonas sp. A20621; [10]): > 100 µg/mL | MIC (S. aureus A20239; A20239, Table 6, Sa-10): 100 µg/mL (≈ 261 µM) | MIC (S. aureus D137; D137, Table 6, Sa-9): > 100 µg/mL | MIC (Ser. marcescens A21247; A21247, Table 6, Sm-16): > 100 µg/mL | ED50 (E. coli NIHJ [3]; [12]): 135 mg/kg | ED50 (Ps. aeruginosa A9930; [12]): 540 mg/kg | ED50 (S. aureus Smith; [12]): 100 mg/kg | acute toxicity compared with Bu-2183 A (in vivo; mice, i.v. and s.c.): much less toxic than Bu-2183 A | no death at doses up to (in vivo; mouse, in vivo, iv): ≥ 2000 mg/kg | no death at doses up to (in vivo; mouse, in vivo, sc): ≥ 2000 mg/kg | bio-activity [4]: bio-active | intrinsic activity in terms of MIC values [4]: moderate or rather weak | antibacterial spectrum ([4]; listed as B): broad spectrum of antibacterial activity against Gram-positive and Gram-negative bacteria including many of the aminoglycoside-resistant organisms and Pseudomonas strains | solubility in methanol and ethanol (Solubility): slightly soluble | solubility in n-butanol, acetone and other common organic solvents (Solubility): practically insoluble | solubility in water (Solubility): soluble | pKa (Titration in water; read-out: pKa' (first value)): 7.15 | pKa (Titration in water; read-out: pKa' (second value)): 9.35 | in vivo activity [5]: afforded in vivo activity against all three of the infections tested | medium of greatest in vitro activity (eight test organisms): the greatest in vitro activity was demonstrated when Nutrient Agar was used
